Reference: patent US20260034227A1, “AZLACTONE-BASED POLYMERS AS A SCAFFOLD FOR DIVERSE APPLICATIONS IN DRUG AND GENE DELIVERY” (University of Mississippi, priority 2022, published 2026)

Assay: Pharmacokinetics of DBAC generated from polymer-drug conjugate (UPLC-MS/MS)
Format: in vivo, CD-1 mice
Conditions: CD1 mice; for F: oral relative to intravenous, 10 mg/kg
Procedure: UPLC-MS/MS. Chromatography was performed on an AcquityTM UPLC system (Waters Corp, Milford, MA) with an autosampler temperature at 10° C. Waters Acquity UPLC® BEH Phenyl column (3.0×50 mm, 1.7 μm particle size) was used for chromatographic separation with linear gradient elution consisting of (A) 90% acetonitrile and (B) 10% of 0.2% formic acid in Milli-Q water as mobile phases. The flow rate was set at 0.30 mL/min, and the injection volume was 2 μL. An Acquity Tandem Quadrupole Mass Detector (Xevo TQ-S; Waters Corp, Milford, MA) in positive electrospray ionization mode was used for mass spectrometric detection. For collision-induced dissociation, argon was used as collision gas. The cone voltage and collision energy were set at 40 V and 24 V for DBAC and 40 V and 26 V for the tolbutamide (IS), respectively. Quantification was performed using the monitoring of multiple reaction monitoring (MRM) of following transitions: m/z 276/186 for DBAC and m/z 271/90.9 for IS. […] Pharmacokinetics of […]. All procedures were performed in compliance with the University of Mississippi Animal Care and Use Committee and following the National Institutes of Health (NIH) guidelines. […] Either DBAC or […] were administered at 10 mg/kg through oral gavage or retro-orbital IV injection at a volume of 0.1 mL. The vehicle for DBAC was 10% absolute alcohol, 10% cremophor and 80% Milli-Q water, whereas the […] polymer was administered in 100% PBS. […] Blood was collected by cardiac puncture and stored in K2 EDTA tubes (SAI Infusion Technologies, #MVCB-E-300). Mice were then perfused through heart with PBS (Life Technologies, #10-010-072). Plasma was harvested by centrifuging the blood using Eppendorf […] Centrifuge (Germany) at 5,000 rpm for 5 min and stored frozen at -80±10° C. until analysis. […] Sample preparation for DBAC detection. A simple protein precipitation method was followed for extraction of DBAC from mice plasma. To an aliquot of 50 μL of plasma or tissue (GI tract, heart, lung, spleen, liver or kidney) samples, tolbutamide (internal standard, IS) solution (5 μL of 20 ng/ml) was added and mixed for 15 s on a cyclomixer (Thermo Scientific, IN, USA). After precipitation with 500 μL of acetonitrile, the mixture was vortexed for 2 min, followed by centrifugation for 10 min at 14,000 rpm on an accuSpin Micro 17R (Fisher Scientific, USA) at 5° C. An aliquot of 150 μL of clear supernatant was transferred into vials and 2 μL was injected into the UPLC-MS/MS system for analysis. The primary stock solutions of DBAC and tolbutamide (IS) were prepared in methanol at 1.0 mg/mL concentration. Working solutions of calibration standards and quality control (QC) samples were prepared by dilution with methanol and stored at -20° C. A working stock of the IS solution (20 ng/ml) was prepared in methanol and stored at -20° C.

[1] = GI tract, intravenous 10 mg/kg conjugate
[2] = GI tract, oral 10 mg/kg conjugate
[3] = Heart, intravenous 10 mg/kg conjugate
[4] = Kidney, intravenous 10 mg/kg conjugate
[5] = Kidney, oral 10 mg/kg conjugate
[6] = Liver, intravenous 10 mg/kg conjugate
[7] = Lung, intravenous 10 mg/kg conjugate
[8] = Plasma, intravenous 10 mg/kg conjugate
[9] = Plasma, oral 10 mg/kg conjugate
[10] = Spleen, intravenous 10 mg/kg conjugate

AUC0-α [1]: 18544 ± 156 ng·h/g
CO [1]: 4899 ± 1104 ng/g
t1/2 [1]: 6.97 ± 1.03 h
AUC0-α [2]: 95643 ± 1023 ng·h/g
Tmax [2]: 1.25 ± 0.53 h
F (GI tract): >100 ± 47.5%
AUC0-α [3]: 8914 ± 512 ng·h/g
CO [3]: 4961 ± 715 ng/g
t1/2 [3]: 2.20 ± 0.78 h
AUC0-α (Heart, oral 10 mg/kg conjugate): 1008 ± 95.6 ng·h/g
Tmax (Heart, oral 10 mg/kg conjugate): 4.38 ± 0.53 h
F (Heart): 11.3 ± 2.57%
AUC0-α [4]: 10575 ± 1910 ng·h/g
CO [4]: 41296 ± 2103 ng/g
t1/2 [4]: 3.49 ± 0.59 h
AUC0-α [5]: 490 ± 101 ng·h/g
Tmax [5]: 0.50 ± 0.00 h
F (Kidney): 4.64 ± 2.59%
AUC0-α [6]: 17457 ± 3832 ng·h/g
CO [6]: 36898 ± 2501 ng/g
t1/2 [6]: 2.24 ± 0.37 h
AUC0-α (Liver, oral 10 mg/kg conjugate): 1464 ± 346 ng·h/g
Tmax (Liver, oral 10 mg/kg conjugate): 0.63 ± 0.25 h
F (Liver): 8.38 ± 1.98%
AUC0-α [7]: 1772 ± 141 ng·h/g
CO [7]: 1326 ± 202 ng/g
t1/2 [7]: 3.73 ± 0.47 h
AUC0-α (Lung, oral 10 mg/kg conjugate): 1315 ± 85.6 ng·h/g
Tmax (Lung, oral 10 mg/kg conjugate): 1.25 ± 0.68 h
F (Lung): 74.2 ± 25.3%
AUC0-α [8]: 1586 ± 125 ng·h/mL
CO [8]: 7216 ± 1023 ng/mL
t1/2 [8]: 1.09 ± 0.12 h
AUC0-α [9]: 120 ± 65.0 ng·h/mL
Cmax [9]: 119 ± 25.3 ng/mL
Tmax [9]: 0.75 ± 0.29 h
F (Plasma): 7.59 ± 2.48%
AUC0-α [10]: 1089 ± 124 ng·h/g
CO [10]: 1026 ± 248 ng/g
t1/2 [10]: 2.27 ± 0.55 h
Substance: N-(2-hydroxyethyl)-N,N-dimethyl-2-oxo-2-(2-oxo-2H-chromen-3-yl)ethanaminium [DBAC]
